Test results as given in patent publication US20250346571A1, “BICYCLIC DERIVATIVE PARP INHIBITOR AND USE THEREOF” (XIZANG HAISCO PHARMACEUTICAL CO., LTD., priority 2022, published 2025).

Experiments:
[1] = Pharmacokinetic test in monkeys; type: in vivo, cynomolgus monkeys
Experimental: 6.1 Experimental animal: male cynomolgus monkeys, 3-5 kg, 3-6 years old, 4 monkeys/compound, purchased from Suzhou Xishan Biotechnology Inc.
6.2 Test method: On the day of the experiment, 8 monkeys were randomly grouped according to their body weights. The animals were fasted with water available for 14 to 18 h one day before the administration, and were fed 4 h after the administration.
Before and after the administration, 1.0 mL of blood was taken from the limb veins and placed in an EDTAK2 centrifuge tube. The blood was centrifuged at 5000 rpm and 4° C. for 10 min to collect plasma. The blood collection time points for the intravenous administration group were 0, 5 min, 15 min, 30 min, 1 h, 2 h, 4 h, 6 h, 8 h, 10 h, 12 h, 24 h and 48 h. Before analysis and detection, all samples were stored at −80° C. The samples were analyzed quantitatively by LC-MS/MS.

[2] = system: MDA-MB-436 cells; assay: MDA-MB-436 cell activity test (CellTiter-Glo, 7 days); type: cell-based; conditions: Homo sapiens
Experimental: Breast tumor cells MDA-MB-436 were purchased from ATCC, the culture medium was Leibovitz's L-15+10% FBS, and the cells were cultured in a CO2-free incubator at 37° C. On day 1, the cells in the exponential growth phase were collected, and the cell suspension was adjusted to 4000 cells/135 μL with the culture medium. 135 μL of the cell suspension was added to each well of a 96-well cell culture plate and incubated overnight. On day 2, compounds at different concentrations were added, and the plate was placed in the incubator and incubated for 7 days. After the incubation was completed, according to operation instructions for a CellTiter-Glo kit (Promega, G7573), 75 μL of CTG solution, which was already pre-melted and equilibrated to room temperature, was added to each well, and the mixture was uniformly mixed for 2 min using a microplate shaker. The plate was placed at room temperature for 10 min, and then […] were measured using an Envision2104 plate reader (PerkinElmer). The inhibition rate was calculated using formula (1), where RLUcompound was the readout of the drug treated group, RLUcontrol was the average value of the vehicle control group, and RLUblank was the average value of the cell-free well. The IC50 value was calculated using GraphPad Prism software

[3] = Pharmacokinetic test in beagle dogs; type: in vivo
Experimental: 5.1 Experimental animal: male beagle dogs, about 8-11 kg, 6 beagle dogs/compound, purchased from Beijing Marshall Biotechnology Co., Ltd.
5.2 Test method: on the day of the experiment, 6 beagle dogs were randomly grouped according to their body weights. The animals were fasted with water available for 12 to 14 h one day before the administration and were fed 4 h after the administration. The administration was performed according to Table 7.
(§1) Before and after the administration, 1 ml of blood was taken from the jugular veins or limb veins, and placed in an EDTAK2 centrifuge tube. The blood was centrifuged at 5000 rpm and 4° C. for 10 min to collect plasma. The blood collection time points for the intravenous administration group and intragastric administration group were 0, 5 min, 15 min, 30 min, 1 h, 2 h, 4 h, 6 h, 8 h, 10 h, 12 h, 24 h and 48 h. Before analysis and detection, all samples were stored at −80° C. The samples were analyzed quantitatively by LC-MS/MS.

[4] = biological target: PARP-1 enzyme (Homo sapiens (Human), UniProt P09874); assay: PARP-1 enzyme activity test (chemical fluorescence detection kit, BPS Bioscience); type: biochemical; conditions: grades; read-out: PARP-1 enzyme activity IC50
PARP-1 enzyme, sequence (P09874 whole entry): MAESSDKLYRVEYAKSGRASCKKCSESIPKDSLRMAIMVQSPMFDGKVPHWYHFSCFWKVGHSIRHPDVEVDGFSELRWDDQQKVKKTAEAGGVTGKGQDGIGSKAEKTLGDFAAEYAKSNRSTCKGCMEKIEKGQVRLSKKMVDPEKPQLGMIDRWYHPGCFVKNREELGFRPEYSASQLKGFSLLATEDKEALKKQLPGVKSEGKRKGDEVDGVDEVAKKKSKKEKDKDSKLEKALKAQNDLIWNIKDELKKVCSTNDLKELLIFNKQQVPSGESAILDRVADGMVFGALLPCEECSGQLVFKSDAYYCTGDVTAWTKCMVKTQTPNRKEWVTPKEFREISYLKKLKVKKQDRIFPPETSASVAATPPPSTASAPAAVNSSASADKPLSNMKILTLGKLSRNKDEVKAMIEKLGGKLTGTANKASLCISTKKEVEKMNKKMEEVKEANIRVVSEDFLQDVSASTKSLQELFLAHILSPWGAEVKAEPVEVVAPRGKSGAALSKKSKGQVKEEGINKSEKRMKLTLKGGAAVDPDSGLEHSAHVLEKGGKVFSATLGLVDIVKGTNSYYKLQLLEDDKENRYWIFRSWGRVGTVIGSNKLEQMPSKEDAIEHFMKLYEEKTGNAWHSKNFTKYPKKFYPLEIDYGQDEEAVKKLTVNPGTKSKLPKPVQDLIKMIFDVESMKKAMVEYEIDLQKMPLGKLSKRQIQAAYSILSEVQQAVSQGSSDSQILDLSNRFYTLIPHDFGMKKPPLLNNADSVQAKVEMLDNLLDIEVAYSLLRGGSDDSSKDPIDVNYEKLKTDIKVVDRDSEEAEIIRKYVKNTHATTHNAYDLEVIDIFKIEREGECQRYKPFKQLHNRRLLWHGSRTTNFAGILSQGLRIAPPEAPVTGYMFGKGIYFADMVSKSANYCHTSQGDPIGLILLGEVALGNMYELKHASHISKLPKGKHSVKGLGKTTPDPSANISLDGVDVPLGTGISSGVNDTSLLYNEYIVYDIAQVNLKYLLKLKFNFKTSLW
Experimental: PARP-1 chemical fluorescence detection kit was purchased from BPS Bioscience. The histone solution in the kit was diluted 5× with 1×PBS, and 25 μL of the diluted histone solution was added to a microwell plate and incubated overnight at 4° C. After the incubation, the plate was washed three times with PBST (0.05% Tween-20). 100 μL of the blocking solution was added to the microwell plate and incubated at 25° C. for 90 minutes. After the incubation was completed, the plate was washed three times with PBST. 2.5 μL of compounds at different concentrations diluted in test buffer and 12.5 μL of substrate mixed solution (1.25 μL 10×PARP test buffer; 1.25 μL 10×PARP test mixed solution; 2.5 μL Activated DNA, 7.5 μL double-distilled water) were added to the microwell plate. The PARP-1 enzyme was diluted to 2 ng/μL, […] was added to the microwell plate, and the reaction system was incubated at 25° C. for 60 minutes.
After the incubation was completed, the plate was washed three times with PBST. Streptavidin-HRP was diluted 50× with a blocking solution, and 25 μL of the diluent was added to the microwell plate and incubated at 25° C. for 30 minutes. After the incubation, the plate was washed three times with PBST. ELISA ECL substrate A and substrate B were uniformly mixed at a ratio of 1:1 (v/v), 50 μL of the mixture was added to the microwell plate, and the chemiluminescence value was read.
The inhibition rate was calculated according to formula 1, where RLUsample was the readout of the compound well, RLUmax was the readout of the solvent control well, and RLUmin was the readout of the control well without the PARP-1 enzyme. Curve fitting was performed by four parameters (log(inhibitor) vs. response—Variable slope) using GraphPad Prism software, and the ICso value was calculated.
Inhibition %=(1−(RLUsample−RLUmin)/(RLUmax−RLUmin))×100% (formula 1)

[5] = Pharmacokinetic test in rats; type: in vivo, SD rats
Experimental: 3.1 Experimental animal: male SD rats, about 220 g, 6-8 weeks old, 6 rats/compound, purchased from Chengdu Ddossy Experimental Animals Co., Ltd.
3.2 Experimental design: on the day of the experiment, 30 SD rats were randomly grouped according to their body weights. The animals were fasted with water available for 12 to 14 h one day before the administration and were fed 4 h after the administration.
as §1, with “administration, 0.15” for “administration, 1”, “the orbit of the animals under isoflurane anesthesia” for “the jugular veins or limb veins,”, “8” for “8 h, 10 h, 12 h, 24”, “and 24” for “and 48”, “h. The brain tissues were collected 24 hours after administration, rinsed with cold physiological saline to remove the residual blood on the surface, drained out and then homogenized.” for “h.”

[6] = male, cynomolgus monkey, iv, monkeys, i.v. (0.5 mg/kg), plasma
[7] = male, dog, iv, beagle dogs, i.v. (0.2 mg/kg), plasma
[8] = male, SD, rat, iv, rats, i.v. 2.5 mg/kg, plasma

- pharmacokinetic characteristics in monkeys ([1]; conclusion in words): good pharmacokinetic characteristics
- AUC(0-t) [1, 6]: 5470 ± 422 ng·h/mL
- clearance [1, 6]: 1.5 ± 0.13 mL/min/kg
- Vd ([1]; male, cynomolgus monkey, iv, monkeys, i.v. (0.5 mg/kg), plasma, read-out: Vdss): 0.419 ± 0.02 L/kg
- bioavailability ([1]; male, cynomolgus monkey, plasma, po, monkeys, i.g. (3 mg/kg)): 63.2 ± 6.1%
- AUC(0-t) ([1]; male, cynomolgus monkey, po, monkeys, i.g. (3 mg/kg), plasma): 20700 ± 1990 ng·h/mL
- IC50 ([2]; MDA-MB-436, 168 h, 7 days incubation): 10.2 nM
- pharmacokinetic characteristics in dogs ([3]; conclusion in words): good pharmacokinetic characteristics
- AUC(0-t) [3, 7]: 1950 ± 474 ng·h/mL
- clearance [3, 7]: 3.47 ± 0.98 mL/min/kg
- Vd ([3]; male, dog, iv, beagle dogs, i.v. (0.2 mg/kg), plasma, read-out: Vdss): 1.52 ± 0.45 L/kg
- bioavailability ([3]; male, dog, plasma, po, beagle dogs, i.g. (3 mg/kg)): ≥ 98%
- AUC(0-t) ([3]; male, dog, po, beagle dogs, i.g. (3 mg/kg), plasma): 19000 ± 2890 ng·h/mL
- IC50 [4]: < 5 nM
- pharmacokinetic characteristics in rats ([5]; conclusion in words): good pharmacokinetic characteristics
- Kp at 24 h ([5]; male, SD, rat, brain/plasma, intravenous, 2.5 mg/kg, rats, 24 h after administration, read-out: Brain/Plasma Ratio (24 h)): 1.5
- AUC(0-t) [5, 8]: 14500 ± 4760 ng·h/mL
- clearance [5, 8]: 3.13 ± 1.2 mL/min/kg
- Vd ([5]; male, SD, rat, iv, rats, i.v. 2.5 mg/kg, plasma, read-out: Vdss): 0.631 ± 0.12 L/kg
- bioavailability ([5]; male, SD, rat, plasma, po, rats, i.g. 10 mg/kg): ≥ 98%
- AUC(0-t) ([5]; male, SD, rat, po, rats, i.g. 10 mg/kg, plasma): 63300 ± 19600 ng·h/mL
Structure (SMILES): O=C(NC1CC1)c1ccc(N2CCN(Cc3ccc4nc(C(F)F)c(=O)[nH]c4c3F)CC2)c(F)n1 [Compound 12, N-cyclopropyl-5-(4-((2-(difluoromethyl)-5-fluoro-3-oxo-3,4-dihydroquinoxalin-6-yl)methyl)piperazin-1-yl)-6-fluoropicolinamide]
- inhibition at 10 µM ([2]; 10 μM, MDA-MB-436 cells, read-out: Max inh. % 10 μM): 74.5%
